In patent US20070202165A1, “Method for a supplemental dietary composition having a multi-phase dissolution profile” (priority 2006, published 2007):
“Also recorded” adds a separate entry of the source.

Assays:
Format in all cases: physicochemical
[1] = Time to dissolve in water, estimated by visual inspection, regular vs fine-milled ingredients; details: for Time taken to dissolve: 100 mL water, magnetic stirring
Protocol: In order to determine the effect of fine-milling on the dissolution rate, initial testing was performed to examine the rate of dissolution of common supplemental dietary ingredients. For the purposes of this disclosure, the term “regular” as used herein makes reference to non-fine-milled particles. 100 mL of water was placed into a 250 mL beaker and a magnetic stirrer bar was added to the beaker. The beaker was then placed on a magnetic stirrer was set to constant speed. […] The time required to dissolve was estimated by visual inspection. Equal amounts of the fine-milled ingredients were then added to the water and the time required to dissolve was estimated by visual inspection.

[2] = Solubility test with filtration: amount dissolved until saturated and dry powder remaining on filter paper; details: gravity filtration, filter paper dried
Protocol: A second experiment relating to fine-milling and potential increase in bioavailability was conducted. In order to test the capacity of fine-milling to improve the rate bioavailability of substances, a simple test was performed. The test was conceived to mimic various elements involved in the processes of oral administration of a nutritional supplement. The key parameters involved were rate of dissolution and solubility, as it is understood that an ingested nutrient must be dissolved or reduced to a bio-transportable size in order to be utilized biochemically by the body.
The rates of dissolution and solubility of regular common nutritional supplements were compared to fine-milled versions within a fixed time.
100 mL of water was added to a 250 mL beaker and a magnetic stirring bar was placed in the beaker. The beaker was placed on a magnetic stirrer and stirred with low speed. 1 g of a given supplemental dietary ingredient powder was added incrementally to the beaker with the stirring speed constant until the solution visually appeared saturated. […]
The ‘Fold Change’ represents the change in the amount of substance unable to pass through the filter as calculated by the amount of unfiltered regular substance divided by the amount of unfiltered fine-milled substance and represents the potential theoretical improvement in bioavailability.

[3] = Kinetic dissolution experiment: samples filtered at 1 and 5 minutes; details: for weight of unfiltered sample: 1 g in 50 mL water, Whateman 41 filter
Protocol: In order to expand on the results of the aforenoted experiments, a kinetic experiment was conducted to examine the change in the dissolution rate over short time periods.
1 g of sample was added to 50 mL water in a flask with a magnetic stir bar on a stirrer set at constant speed. Separate samples were filtered at 1 and 5 minutes. The pre-weighed filter papers (Whateman 41, particle retention 20-25 μm) were allowed to dry and the amount of sample remaining on the filter paper was determined.

In the case of `CN(CC(=O)O)C(=N)N.O` [Creatine Monohydrate], the “Time taken to dissolve” value ([1]; Powder type Fine-milled) is reported as <5 min, the “Time taken to dissolve” value ([1]; Powder type Regular (non-fine-milled)) is reported as <5 min and the “Dissolution of fine-milled compared with regular ingredient (in words)” value ([1]; fine-milled vs regular, Monohydrate) is reported as “dissolved at the same rate in both the fine-milled and regular formats; also recorded: did not display a difference dependent on particle size”. The “Dry Powder On Filter” value ([2]; Powder type Fine-milled) was 0.01 g, the “Dry Powder On Filter” value ([2]; Powder type Regular) was 0.19 g and the “Time to filter, fine-milled compared with regular samples (in words)” value ([3]; 1- and 5-minute intervals) was “consistently longer for the fine-milled samples”. The “weight of unfiltered sample” value ([3]; Fine-milled, filtered at 1-minute interval, listed as Creatine monohydrate, Monohydrate) was 0.33 g, the “weight of unfiltered sample” value ([3]; Fine-milled, filtered at 1-minute interval, listed as creatine, Monohydrate) was 0.32 g and the “weight of unfiltered sample” value ([3]; Fine-milled, filtered at 5-minute interval) was 0.27 g. For the same compound, the “weight of unfiltered sample” value ([3]; Regular, filtered at 1-minute interval, listed as Creatine monohydrate, Monohydrate) was 0.32 g, the “weight of unfiltered sample” value ([3]; Regular, filtered at 1-minute interval, listed as creatine, Monohydrate) was 0.33 g and the “weight of unfiltered sample” value ([3]; Regular, filtered at 5-minute interval) was 0.40 g.
